The values below come from patent publication US11072581B2, “N-acyl-arylsulfonamide derivatives as aminoacyl-tRNA synthetase inhibitors” (Oxford Drug Design Limited, priority 2015, dated 2021).

Where a name gives a salt, the structure may show the parent alone.

The target in data set [1] is T1, EcoLRS (leucyl-tRNA synthetase from Escherichia coli) (Escherichia coli, UniProt P07813).
T1 construct: made in house; host or cells: Escherichia coli M15
As to the kind of experiment: aaRS aminoacylation assay (ATP consumption), EcoLRS. In kind it is biochemical. As to conditions: for % at single point concentration (inhibition ratio), EcoLRS: @50 μM compound. On the procedure:
(§1) The compounds have been tested for antibacterial activity in vitro as aminoacyl-tRNA synthetases (aaRS) inhibitors following the following process.
(§2) Leucyl-, valyl- and isoleucyl-tRNA synthetases (LRS, VRS and IRS, respectively) from Escherichia coli (Eco) and Staphylococcus aureus (Sau).
(§3) Escherichia coli M15 cells transformed with plasmid pQE-60, or pQE-70, containing the open-reading frame sequence of one targeted aaRS were induced with 1 mM IPTG (Isopropyl β-D-1-thiogalactopyranoside) for 3 h at 37° C. Bacterial cells were harvested and lysed with 20 mM NaH2PO4 (pH 8.0), 200 mM NaCl, 10 mM imidazole and protease inhibitor cocktail (Roche). Pathogenic aaRS was purified by nickel affinity standard chromatography. Protein concentration was determined by spectrophotometry.
(§4) tRNA^Leu, tRNA^Val and tRNA^Ile from E. coli and S. aureus were transcribed in vitro for 4 h at 37° C. using T7 RNA polymerase. Transcription reaction contained 40 mM Tris-HCl (pH 8.0), 22 mM MgCl2, 1 mM spermidine, 5 mM DTT, 0.01% Triton X-100, 4 mM GTP, 4 mM ATP, 4 mM UTP, 4 mM CTP, 16 mM GMP, […] T7 RNA polymerase and 150 μg BstNI digested plasmid. Once finished, the reaction was applied on a 6% polyacrylamide-8 M urea denaturing gel to purify the transcribed tRNA and discard any impurities. Purified tRNA was quantified with Nanodrop 2000 (Thermo Scientific).
(§5) The aminoacylation reaction catalyzed by aminoacyl-tRNA synthetases (aaRS) takes place in two steps. In the first step, aaRS activates its cognate amino acid with ATP; and in the second step the activated amino acid is loaded to its corresponding tRNA. This reaction can be summarized as follows: ARS+aa+ATP=ARS-aa-AMP+PPi ARS-aa-AMP+tRNA=aa-tRNA+AMP+ARS [2] (ARS, Aminoacyl-tRNA synthetase; aa, amino acid; ARS-aa-AMP, enzyme-bound to aminoacyl-adenylate; aa-tRNA, aminoacyl-tRNA).
(§6) The activity of the pathogenic aaRSs was monitored by measuring the ATP consumption rate, since this consumption is directly proportional to the activity of the aaRS. If the tested compound, at a single point concentration of 50 μM, is inhibiting the aminoacylation reaction, there is a decrease in the ATP consumption, compared to the control reaction without compound, allowing the calculation of an inhibition ratio.
(§7) When the inhibition ratio for a given compound was above 80%, IC50 determination was performed with the same enzymatic assay (using the commercial kit Kinase RR from BioThema AB, Sweden) in the presence of serial dilutions of inhibitor. Known inhibitors of LRS, VRS or IRS were used as a positive control of the assay. The IC50 was calculated based on nonlinear regression analysis.

For data set [2], the target named is T2, SauVRS (valyl-tRNA synthetase from Staphylococcus aureus) (Staphylococcus aureus, UniProt Q2FXR8).
T2 construct: made in house; host or cells: Escherichia coli M15
T2 sequence (Q2FXR8 1-876): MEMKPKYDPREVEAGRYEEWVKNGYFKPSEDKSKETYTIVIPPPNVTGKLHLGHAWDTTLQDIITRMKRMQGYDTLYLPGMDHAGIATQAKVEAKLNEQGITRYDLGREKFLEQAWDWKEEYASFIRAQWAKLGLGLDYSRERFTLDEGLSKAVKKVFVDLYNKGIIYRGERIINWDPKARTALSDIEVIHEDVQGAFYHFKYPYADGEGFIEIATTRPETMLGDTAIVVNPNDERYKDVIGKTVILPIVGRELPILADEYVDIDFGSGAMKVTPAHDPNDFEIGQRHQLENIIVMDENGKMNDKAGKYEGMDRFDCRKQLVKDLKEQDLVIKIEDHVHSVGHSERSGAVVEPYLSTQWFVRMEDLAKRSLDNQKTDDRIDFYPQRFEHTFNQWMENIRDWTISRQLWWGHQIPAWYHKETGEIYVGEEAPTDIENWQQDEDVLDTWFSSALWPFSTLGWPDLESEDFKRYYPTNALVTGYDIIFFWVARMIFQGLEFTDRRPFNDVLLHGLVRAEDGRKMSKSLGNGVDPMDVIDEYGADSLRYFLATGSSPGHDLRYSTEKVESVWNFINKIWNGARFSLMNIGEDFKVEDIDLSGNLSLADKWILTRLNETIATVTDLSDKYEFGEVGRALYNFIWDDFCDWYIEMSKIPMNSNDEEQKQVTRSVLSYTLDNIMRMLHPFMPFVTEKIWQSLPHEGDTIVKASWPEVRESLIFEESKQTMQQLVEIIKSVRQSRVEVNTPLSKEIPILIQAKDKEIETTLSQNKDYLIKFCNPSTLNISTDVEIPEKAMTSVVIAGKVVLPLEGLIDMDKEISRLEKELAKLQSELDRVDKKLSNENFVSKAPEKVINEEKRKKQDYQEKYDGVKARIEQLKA
As to the kind of experiment: aaRS aminoacylation assay (ATP consumption), SauVRS. In kind it is biochemical. As to conditions: i.a. = inactive at a concentration below 50 uM. On the procedure:
as §1, §2, §3, §4, §5, §6, §7

The target in data set [3] is T3, SauLRS (leucyl-tRNA synthetase from Staphylococcus aureus) (Staphylococcus aureus, UniProt Q2FXH2).
T3 construct: made in house; host or cells: Escherichia coli M15
T3 sequence (Q2FXH2 1-805): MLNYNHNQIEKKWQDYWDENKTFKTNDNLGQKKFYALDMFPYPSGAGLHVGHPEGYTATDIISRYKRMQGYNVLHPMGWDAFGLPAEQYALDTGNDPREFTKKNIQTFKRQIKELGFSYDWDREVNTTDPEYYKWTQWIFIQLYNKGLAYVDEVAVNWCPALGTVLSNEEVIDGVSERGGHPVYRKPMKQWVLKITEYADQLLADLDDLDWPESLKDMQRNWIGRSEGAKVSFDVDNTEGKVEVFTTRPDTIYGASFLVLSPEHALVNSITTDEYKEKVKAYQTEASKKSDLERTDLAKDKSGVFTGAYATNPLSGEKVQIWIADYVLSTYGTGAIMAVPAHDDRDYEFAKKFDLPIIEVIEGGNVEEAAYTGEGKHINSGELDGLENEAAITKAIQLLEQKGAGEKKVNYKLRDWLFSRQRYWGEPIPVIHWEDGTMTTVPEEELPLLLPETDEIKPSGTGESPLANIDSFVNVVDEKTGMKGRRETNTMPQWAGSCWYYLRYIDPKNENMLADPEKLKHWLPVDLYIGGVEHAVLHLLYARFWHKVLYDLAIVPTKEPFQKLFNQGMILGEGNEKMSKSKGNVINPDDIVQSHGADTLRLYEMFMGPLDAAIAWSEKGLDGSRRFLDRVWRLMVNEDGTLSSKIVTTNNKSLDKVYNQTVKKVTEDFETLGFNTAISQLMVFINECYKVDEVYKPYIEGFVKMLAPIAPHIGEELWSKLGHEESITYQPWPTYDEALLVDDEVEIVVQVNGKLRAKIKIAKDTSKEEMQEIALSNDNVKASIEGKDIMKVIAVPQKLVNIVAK
Put plainly: aaRS aminoacylation assay (ATP consumption), SauLRS. In kind it is biochemical. As to conditions: i.a. = inactive at a concentration below 50 uM. On the procedure:
as §1, §2, §3, §4, §5, §6, §7

The target in data set [4] is T4, EcoIRS (isoleucyl-tRNA synthetase from Escherichia coli) (Escherichia coli, UniProt P00956).
T4 construct: made in house; host or cells: Escherichia coli M15
As to the kind of experiment: aaRS aminoacylation assay (ATP consumption), EcoIRS. In kind it is biochemical. As to conditions: i.a. = inactive at a concentration below 50 uM. On the procedure:
as §1, §2, §3, §4, §5, §6, §7

In data set [5] the target is T5, EcoVRS (valyl-tRNA synthetase from Escherichia coli) (Escherichia coli, UniProt P07118).
T5 construct: made in house; host or cells: Escherichia coli M15
As to the kind of experiment: aaRS aminoacylation assay (ATP consumption), EcoVRS. In kind it is biochemical. As to conditions: i.a. = inactive at a concentration below 50 uM. On the procedure:
as §1, §2, §3, §4, §5, §6, §7

T1 sequence (P07813 whole entry): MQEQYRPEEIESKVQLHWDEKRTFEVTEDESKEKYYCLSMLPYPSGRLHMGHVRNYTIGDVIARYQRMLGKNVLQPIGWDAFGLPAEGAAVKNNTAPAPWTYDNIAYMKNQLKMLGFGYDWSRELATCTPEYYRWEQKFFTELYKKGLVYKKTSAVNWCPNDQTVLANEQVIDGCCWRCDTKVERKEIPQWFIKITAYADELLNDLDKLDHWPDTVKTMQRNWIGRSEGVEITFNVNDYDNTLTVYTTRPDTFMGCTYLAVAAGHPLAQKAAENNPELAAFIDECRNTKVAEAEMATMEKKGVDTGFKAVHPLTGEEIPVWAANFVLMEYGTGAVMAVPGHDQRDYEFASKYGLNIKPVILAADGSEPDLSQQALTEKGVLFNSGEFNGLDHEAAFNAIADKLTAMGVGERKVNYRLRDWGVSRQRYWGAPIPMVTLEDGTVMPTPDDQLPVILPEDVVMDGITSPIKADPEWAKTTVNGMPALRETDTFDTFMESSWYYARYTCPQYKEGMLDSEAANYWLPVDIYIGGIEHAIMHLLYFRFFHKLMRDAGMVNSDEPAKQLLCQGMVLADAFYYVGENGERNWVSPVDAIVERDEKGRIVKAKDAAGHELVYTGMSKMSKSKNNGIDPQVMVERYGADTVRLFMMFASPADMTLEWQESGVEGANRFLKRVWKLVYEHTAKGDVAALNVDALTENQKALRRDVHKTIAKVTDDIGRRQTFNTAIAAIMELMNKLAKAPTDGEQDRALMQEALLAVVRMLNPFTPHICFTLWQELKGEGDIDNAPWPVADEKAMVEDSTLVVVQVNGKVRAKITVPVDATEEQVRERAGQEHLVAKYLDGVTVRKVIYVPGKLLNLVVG
T5 sequence (P07118 whole entry): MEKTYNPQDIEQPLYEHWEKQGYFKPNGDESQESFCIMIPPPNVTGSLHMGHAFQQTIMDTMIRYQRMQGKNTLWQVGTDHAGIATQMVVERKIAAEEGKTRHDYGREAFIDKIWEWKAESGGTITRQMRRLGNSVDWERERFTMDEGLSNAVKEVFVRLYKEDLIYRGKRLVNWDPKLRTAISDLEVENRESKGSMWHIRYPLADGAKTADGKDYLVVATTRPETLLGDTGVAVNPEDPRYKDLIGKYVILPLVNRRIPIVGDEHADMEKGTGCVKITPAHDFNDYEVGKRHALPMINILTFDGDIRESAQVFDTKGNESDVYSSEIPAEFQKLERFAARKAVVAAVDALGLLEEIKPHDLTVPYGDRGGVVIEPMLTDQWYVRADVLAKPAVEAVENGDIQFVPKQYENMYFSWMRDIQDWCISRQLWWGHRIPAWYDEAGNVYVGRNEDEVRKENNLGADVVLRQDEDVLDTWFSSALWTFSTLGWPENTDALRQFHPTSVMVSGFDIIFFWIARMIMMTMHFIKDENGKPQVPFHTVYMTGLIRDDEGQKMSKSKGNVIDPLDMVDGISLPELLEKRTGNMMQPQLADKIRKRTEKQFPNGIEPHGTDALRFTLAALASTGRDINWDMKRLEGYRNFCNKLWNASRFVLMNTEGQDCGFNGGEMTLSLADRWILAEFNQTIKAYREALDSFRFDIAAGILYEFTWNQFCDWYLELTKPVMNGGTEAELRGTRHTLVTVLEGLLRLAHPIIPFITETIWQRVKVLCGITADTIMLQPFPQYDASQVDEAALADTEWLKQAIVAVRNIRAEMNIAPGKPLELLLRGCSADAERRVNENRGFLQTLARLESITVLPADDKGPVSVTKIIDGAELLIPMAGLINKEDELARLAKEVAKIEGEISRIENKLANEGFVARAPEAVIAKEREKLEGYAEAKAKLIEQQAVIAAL
T4 sequence (P00956 whole entry): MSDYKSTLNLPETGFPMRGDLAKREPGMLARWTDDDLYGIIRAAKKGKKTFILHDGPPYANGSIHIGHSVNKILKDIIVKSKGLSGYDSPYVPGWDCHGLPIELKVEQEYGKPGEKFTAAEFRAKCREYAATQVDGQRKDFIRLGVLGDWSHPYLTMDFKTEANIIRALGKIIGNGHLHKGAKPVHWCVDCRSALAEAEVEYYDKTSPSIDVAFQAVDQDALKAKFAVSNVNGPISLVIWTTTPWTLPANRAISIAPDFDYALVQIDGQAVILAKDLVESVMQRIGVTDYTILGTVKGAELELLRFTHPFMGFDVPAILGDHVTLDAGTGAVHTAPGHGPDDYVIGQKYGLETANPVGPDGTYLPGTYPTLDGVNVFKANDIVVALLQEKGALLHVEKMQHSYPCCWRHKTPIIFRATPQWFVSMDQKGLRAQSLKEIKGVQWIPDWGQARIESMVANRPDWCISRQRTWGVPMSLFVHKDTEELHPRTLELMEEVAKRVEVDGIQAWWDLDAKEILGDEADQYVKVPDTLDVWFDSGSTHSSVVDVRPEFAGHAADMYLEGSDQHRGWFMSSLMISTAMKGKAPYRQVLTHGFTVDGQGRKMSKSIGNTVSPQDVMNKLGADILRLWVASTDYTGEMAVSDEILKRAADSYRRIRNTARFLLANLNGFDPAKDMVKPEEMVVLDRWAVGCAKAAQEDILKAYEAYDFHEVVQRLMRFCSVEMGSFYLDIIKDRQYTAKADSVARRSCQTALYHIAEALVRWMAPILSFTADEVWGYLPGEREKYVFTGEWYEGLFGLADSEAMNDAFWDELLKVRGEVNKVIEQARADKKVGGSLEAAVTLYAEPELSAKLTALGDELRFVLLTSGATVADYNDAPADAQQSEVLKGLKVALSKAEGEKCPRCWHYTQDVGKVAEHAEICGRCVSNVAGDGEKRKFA

In the case of `CC(C)C[C@H](N)C(=O)NS(=O)(=O)c1cccc2c(N(C)C)cccc12` (as salt: hydrochloride) [Compound 5.16, (S)-2-amino-N-((5-(dimethylamino)naphthalen-1-yl)sulfonyl)-4-methylpentanamide hydrochloride], the melting point – broadly, the temperature of the solid-liquid transition – was in the range of 178 to 180 °C.

`CC(C)C[C@H](N)C(=O)NS(=O)(=O)c1cccc2cc(C(N)=O)ncc12` (as salt: salt) [Compound 5.24, 8-(N-(L-Leucyl)sulfamoyl)isoquinoline-3-carboxamide] displayed a melting point of 222.9 °C.

Regarding `CC(C)C[C@H](N)C(=O)NS(=O)(=O)c1ccc(Br)c2ccncc12` (as salt: trifluoroacetate) [Compound 5.22], the melting point was in the range of 137 to 139 °C.

As to `CC(C)C[C@H](N)C(=O)NS(=O)(=O)c1cccc2c1CNCC2` (as salt: trifluoroacetate) [Compound 5.26, (S)-2-amino-4-methyl-N-((1,2,3,4-tetrahydroisoquinolin-8-yl)sulfonyl) pentanamide trifluoroacetate], the melting point fell in the range of 90 to 92 °C.

With `CC(C)C[C@H](N)C(=O)NS(=O)(=O)c1ccc(F)cc1` [Compound 5.8], the melting point was 235 to 236 °C.

In turn, `COc1ccc(S(=O)(=O)NC(=O)[C@@H](N)CC(C)C)c2ccccc12` [Compound 5.18] returned a melting point of 253 to 255 °C.

Molecule `CC(C)C[C@H](N)C(=O)NS(=O)(=O)c1ccccn1` [Compound 5.20] yielded a melting point of 203 to 205 °C.

Take `CC(C)C[C@H](N)C(=O)NS(=O)(=O)c1ccc(O)c2ccccc12` [Compound 5.23]: the melting point lay within 250 to 252 °C.

In the case of `Cc1cc(-c2cccc(S(=O)(=O)NC(=O)[C@@H](N)C3CCCCC3)c2)nc(N)n1` [Compound 5.32], the IC50 (in general, the concentration needed to halve the response being measured) in data set [1] was found to be 38 µM. In data set [2], the “IC50 SauVRS” value is “i.a”. Moreover, the “IC50 SauLRS” value in data set [3] is recorded as “i.a”. For the same molecule, the “IC50 EcoIRS” value in data set [4] was “i.a”. In data set [5], the “IC50 EcoVRS” value was “i.a”.

Turning to `CC(C)C[C@H](N)C(=O)NS(=O)(=O)c1cccc(-c2cc(OC(C)C)nc(N)n2)c1` [Compound 5.51], the “% at single point concentration (inhibition ratio), EcoLRS” value in data set [1] is 102%@50 μM.

In the case of `CC(C)C[C@H](N)C(=O)NS(=O)(=O)c1cccc(-c2cc(Oc3ccccc3)nc(N)n2)c1` [Compound 5.52], in data set [1], the “% at single point concentration (inhibition ratio), EcoLRS” value is 104%@50 μM.
